Laboratory results: the NIST ThermoML archive (doi:10.1016/j.jct.2019.02.011)

Columns and labels:
[1] = xn = mol fraction of the nth substance listed; settings: Liquid, Vibrating tube method, x2 = 0
[2] = Liquid, Vibrating tube method

CCCO [propan-1-ol] + COC(=O)OC
mass density [kg/m3], [1]
Settings	100 kPa	5000 kPa	10000 kPa	15000 kPa	20000 kPa	25000 kPa	30000 kPa	35000 kPa	40000 kPa
288.15 K	807.62	811.32	814.7	817.95	821.27	824.24	827.24	830.04	832.73
293.15 K	803.57	807.24	810.8	814.22	817.46	820.74	823.7	826.5	829.09
298.15 K	799.61	803.49	807.15	810.5	813.78	816.92	820.04	822.87	825.81
303.15 K	795.62	799.57	803.13	806.69	810.14	813.48	816.64	819.75	822.6
308.15 K	791.31	795.4	799.21	802.79	806.37	809.72	813.03	816.12	819.06

CO [methanol]
mass density [kg/m3], [2]
Settings	100 kPa	5000 kPa	10000 kPa	15000 kPa	20000 kPa	25000 kPa	30000 kPa	35000 kPa	40000 kPa
288.15 K	796.19	800.57	804.93	808.85	812.92	816.56	820.09	823.62	827.04
293.15 K	791.18	795.97	800.47	804.52	808.43	812.34	815.93	819.32	822.48
298.15 K	786.76	791.52	795.8	800.13	804.18	808.04	811.69	815.2	818.33
303.15 K	782.07	786.79	791.31	795.85	800.16	804.08	807.78	811.31	814.7
308.15 K	777.09	781.85	786.63	791.23	795.58	799.85	803.73	807.42	811.08

CCO [ethanol] + COC(=O)OC
mass density [kg/m3], [1]
Settings	100 kPa	5000 kPa	10000 kPa	15000 kPa	20000 kPa	25000 kPa	30000 kPa	35000 kPa	40000 kPa
288.15 K	794.39	798.18	802.2	806.02	809.69	812.95	816.23	819.12	822.29
293.15 K	789.87	793.83	797.88	801.84	805.45	809.12	812.52	815.8	818.81
298.15 K	785.59	789.72	793.76	797.75	801.4	805.07	808.47	811.58	815.03
303.15 K	781.19	785.47	789.66	793.71	797.54	801.26	804.81	808.29	811.43
308.15 K	776.6	780.98	785.42	789.62	793.63	797.42	801.06	804.6	808.06

CO [methanol] + COC(=O)OC
mass density [kg/m3], [1]
Settings	100 kPa	5000 kPa	10000 kPa	15000 kPa	20000 kPa	25000 kPa	30000 kPa	35000 kPa	40000 kPa
288.15 K	796.19	800.57	804.93	808.85	812.92	816.56	820.09	823.62	827.04
293.15 K	791.18	795.97	800.47	804.52	808.43	812.34	815.93	819.32	822.48
298.15 K	786.76	791.52	795.8	800.13	804.18	808.04	811.69	815.2	818.33
303.15 K	782.07	786.79	791.31	795.85	800.16	804.08	807.78	811.31	814.7
308.15 K	777.09	781.85	786.63	791.23	795.58	799.85	803.73	807.42	811.08

CCCO [propan-1-ol]
mass density [kg/m3], [2]
Settings	100 kPa	5000 kPa	10000 kPa	15000 kPa	20000 kPa	25000 kPa	30000 kPa	35000 kPa	40000 kPa
288.15 K	807.62	811.32	814.7	817.95	821.27	824.24	827.24	830.04	832.73
293.15 K	803.57	807.24	810.8	814.22	817.46	820.74	823.7	826.5	829.09
298.15 K	799.61	803.49	807.15	810.5	813.78	816.92	820.04	822.87	825.81
303.15 K	795.62	799.57	803.13	806.69	810.14	813.48	816.64	819.75	822.6
308.15 K	791.31	795.4	799.21	802.79	806.37	809.72	813.03	816.12	819.06

COC(=O)OC [dimethyl carbonate]
mass density [kg/m3], [2]
Settings	100 kPa	5000 kPa	10000 kPa	15000 kPa	20000 kPa	25000 kPa	30000 kPa	35000 kPa	40000 kPa
288.15 K	1076.83	1081.15	1085.32	1089.52	1093.35	1096.99	1100.63	1104.08	1107.4
293.15 K	1070.06	1074.62	1078.93	1083.01	1087.08	1091.03	1094.75	1098.34	1101.84
298.15 K	1063.45	1068	1072.51	1076.72	1080.9	1084.89	1088.82	1092.44	1096.04
303.15 K	1056.61	1061.47	1066.02	1070.49	1074.79	1078.99	1082.9	1086.6	1090.4
308.15 K	1049.91	1054.84	1059.69	1064.3	1068.73	1073	1077.1	1080.78	1084.38

CCO [ethanol]
mass density [kg/m3], [2]
Settings	100 kPa	5000 kPa	10000 kPa	15000 kPa	20000 kPa	25000 kPa	30000 kPa	35000 kPa	40000 kPa
288.15 K	794.39	798.18	802.2	806.02	809.69	812.95	816.23	819.12	822.29
293.15 K	789.87	793.83	797.88	801.84	805.45	809.12	812.52	815.8	818.81
298.15 K	785.59	789.72	793.76	797.75	801.4	805.07	808.47	811.58	815.03
303.15 K	781.19	785.47	789.66	793.71	797.54	801.26	804.81	808.29	811.43
308.15 K	776.6	780.98	785.42	789.62	793.63	797.42	801.06	804.6	808.06
